# Data published in US11439624B2, “Promoting sleep using AT1 receptor blockers” (UNIVERSITY OF PITTSBURGH—OF THE COMMONWEALTH SYSTEM OF …, priority 2012, dated 2022).
# Columns and labels:
# [1] = test system: rats in the stress-induced insomnia model; assay: stress-induced insomnia model in rats (cage exchange; EEG and EMG recording); assay type: in vivo, rat; conditions: for average of REM sleep / average of nREM sleep / average of wakefulness along the entire experiment: aprox. 6 hours after cage exchange and drug injection; for average of REM sleep: vehicle 2%; for average of nREM sleep: vehicle 45%; for average of wakefulness along the entire experiment: vehicle 52%; for REM sleep (range depending on the hour): vehicle 0-4%; for sleep latency: stressed (cage exchanged) rats, i.p. just prior to transfer to soiled cage, candesartan 1 or 5 mg/kg, azilsartan 0.5 mg/kg, vehicle 68±10 minutes; for abnormal wave components in the EEG (power spectrum analysis): treated rats in the insomnia model
# Experimental: Rats in the stress-induced insomnia model (25) were treated with candesartan intraperitoneally (i.p.; 1 mg/kg or 5 mg/kg). In the model, insomnia is induced by transferring male rats at the peak of their normal sleep cycle into a soiled cage previously occupied during one week by another male rat. This simple procedure induces a psychological or social stress response in the rats, which are very territorial animals. The sequence of sleep disturbances in cage exchanged rats is similar to that observed in humans with primary insomnia. In rats, there is an initial delay in sleep onset and increased wakefulness that resemble the difficulties falling asleep at the beginning of the night, or initial insomnia, observed in humans after a stressful day. Eventually, insomniacs fall asleep because of the sleep pressure, as rats do. But later, as the night progresses, they usually experience insomnia characterized by decreased nREM sleep, frequent awakenings, and poor quality sleep, similar to what we observed in the stressed rats. Candesartan was injected i.p. just prior to transferring the rats (n=7 for the 1 mg/kg treatment and n=4 for the 5 mg/kg treatment) to the soiled cage. EEG and EMG activity were recorded continuously to determine the behavioral state (wake, nREM or REM sleep) along several hours. Control rats (n=6) were injected with vehicle and also placed in a soiled cage and recorded. […] REM sleep is increased to 6-12% (depending on the hour) compared with vehicle treated rats (0-4%). In an additional study, Azilsartan was tested using the same stress-induced insomnia model in rats as was used in Example 1. Azilsartan, which mainly acts as an inverse agonist of AT1 receptors, has been reported to have a potent effect in the treatment of hypertension at a single daily dose compared to twice-a-day doses commonly used for other AT1 receptor blockers. For this reason, we used a lower dose of azilsartan (0.5 mg/kg) than the dose used for candesartan. Azilsartan was injected i.p. just prior to transferring the rats (n=4) to the soiled cage. EEG and EMG activity were recorded continuously to determine the behavioral state (wake, nREM or REM sleep) along several hours, as explained above.
# [2] = test system: humans treated for hypertension; conditions: cited from earlier work
# [3] = candesartan 1 or 5 mg/kg i.p., azilsartan 0.5 mg/kg i.p.
Structure (SMILES),"more sleep in the last two hours of the experiment compared to candesartan-treated rats ([1]; 4 hours after injection of the drug, azilsartan 0.5 mg/kg i.p.)",average of REM sleep [1],average of nREM sleep [1],average of wakefulness along the entire experiment [1],percentage of nREM sleep (range depending on the hour) ([1]; azilsartan 0.5 mg/kg i.p.),"REM sleep (range depending on the hour) [1, 3]",sleep latency [1],abnormal wave components in the EEG (power spectrum analysis) [1],effect on sleep disturbances induced by stress ([1]; validated rat model of stress-induced insomnia),duration of effect compared with other AT1 receptor blockers [2],nREM sleep increase compared with vehicle treated rats (depending on the hour) ([1]; candesartan 1 or 5 mg/kg i.p.)
CCOc1nc2cccc(C(=O)O)c2n1Cc1ccc(-c2ccccc2-c2noc(=O)[nH]2)cc1 [azilsartan],20%,10%,68%,22%,50-82%,3-15%,60 ± 3 min,does not seem to induce abnormal wave components in the EEG,ameliorate sleep disturbances induced by stress,longer-lasting effect than other AT1 receptor blockers,
CCOc1nc2cccc(C(=O)O)c2n1Cc1ccc(-c2ccccc2-c2nnn[nH]2)cc1 [candesartan],,7.5%,57%,35%,,6-12%,38 ± 3 min,does not induce abnormal wave components in the EEG,,,20-40%
